Test results from PMC6010085, “Inhibition of protein tyrosine phosphatase (PTP1B) and α-glucosidase by geranylated flavonoids from Paulownia tomentosa” (Journal of Enzyme Inhibition and Medicinal Chemistry, 2017).
“Also recorded” adds a separate entry of the source. Where two headings read alike, the source gives them in different places.

Assays:
[1] = target: T1, recombinant human protein tyrosine phosphate 1B (PTP1B, EC 3. 1. 3. 48) (Homo sapiens, UniProt P18031); test: biochemical; format: biochemical; design: Vmax: unit not given here; conditions: for PTP1B type of inhibition: Lineweaver–Burk / secondary plots; for Vmax / Kik/Kiv: pNPP; for Kik/Kiv: Yang's method
T1 sequence (P18031 1-435): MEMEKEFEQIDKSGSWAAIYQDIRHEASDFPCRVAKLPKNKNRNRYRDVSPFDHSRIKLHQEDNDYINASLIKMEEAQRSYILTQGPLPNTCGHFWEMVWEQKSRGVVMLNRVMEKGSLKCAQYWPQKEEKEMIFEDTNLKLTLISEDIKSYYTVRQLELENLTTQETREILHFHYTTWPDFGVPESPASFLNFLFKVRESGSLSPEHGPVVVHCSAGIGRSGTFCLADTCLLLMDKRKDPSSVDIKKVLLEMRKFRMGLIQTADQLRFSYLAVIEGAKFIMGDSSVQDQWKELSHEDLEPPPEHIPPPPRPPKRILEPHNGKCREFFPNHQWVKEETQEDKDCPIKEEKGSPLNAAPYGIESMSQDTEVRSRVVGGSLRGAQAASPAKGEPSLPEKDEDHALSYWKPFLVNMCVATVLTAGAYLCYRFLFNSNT
Protocol: The PTP1B inhibitory assay was carried out using a slight modification to literature reported method. p-nitrophenyl phosphate (pNPP) was used as a substrate for the measurement of enzyme activity. Buffer solution consisted of 25 mM Tris–HCl (pH 7.5), 2 mM β-mercaptoethanol, 1 mM (ethylenediaminetetraacetic acid) EDTA, and 1 mM dithiothreitol (DTT). The assay was performed by adding 10 μL test compound solution to 20 μL of enzyme (1 μg/ml), and then mixing with 40 μL of 4 mM pNPP in 130 μL of the given buffer using 96 well plate at 37 °C for 10 min. […] Lineweaver–Burk and Dixon plots methods were used to determine kinetic parameters. Sigma Plot (SPCC Inc., Chicago, IL) was used to calculate these parameters.
(§1) Lineweaver–Burk plots were used for the analysis of enzyme’s inhibitory kinetics, caused by the tested bioactive compounds, and its comparison was performed with the data collected in the absence of inhibitors. Steady-state rates were determined at different inhibitor concentrations and at changing concentrations of substrate, then enzyme inhibition mechanism and related kinetic parameters were determined. Where applicable, KI and KIS, the two inhibition constants, when inhibitor binds with either free enzyme or the complex of enzyme–substrate, were derived from secondary plots of the slopes of the straight lines and vertical intercept (1/V^appmax), versus inhibitors concentrations. Equations (1)–(3) are the representatives equations for derivation of KI and KIS, respectively.
(§2) To determine enzyme inhibition parameters, an experiment was performed having substrate concentrations range (pNPP; 0.4–1.6 mM, pNPG; 0.075–0.3 mM), and different concentrations of tested compound, as indicated. To find out each curve parameter, a nonlinear regression program was used for data analysis using sigma Plot. Similarly Km and Vmax were derived from Lineweaver–Burk plots. Kik and Kiv rate constants were calculated according to Equations (4) and (5) proposed by Yang’s method. While Excel was used for linear regression analysis. (4) Km=Km,0×(1+[I]/Kik) (5) Vm=[…]
First of all, the individual isolated constituents (1–8) from P. tomentosa fruits were tested in an in vitro PTP1B inhibition assay, using recombinant human protein tyrosine […] 1B (EC 3. 1. 3. 48)^1.

[2] = target: α-glucosidase (EC 3.2.1.20. from Baker's Yeast) (Saccharomyces cerevisiae, UniProt P53341); test: α-Glucosidase enzymatic assay (pNPG hydrolysis) and kinetic analysis; format: biochemical; conditions: for α-Glucosidase type of inhibition: Lineweaver–Burk and Dixon plots; for Vmax / Kik/Kiv: α-glucosidase, pNPG; for Kik/Kiv: Yang's method
Protocol: The α-glucosidase inhibitory activity was measured using reported experimental method with slight modifications. Phosphate buffer [50 mM potassium phosphate (pH 6.8)] was used for the whole assay. p-nitrophenyl-α-D-glucopyranoside (pNPG) was used as substrate, whose concentration 1.2 mM was prepared in phosphate buffer. Stock solution of α-glucosidase (EC 3.2.1.20. from Baker’s Yeast) containing 0.45 units of enzyme was also prepared in phosphate buffer. DMSO was used as a solvent for dissolving the test compounds, which were then diluted to their respective concentrations. Enzymatic assay was performed by mixing 40 μl of substrate (final concentration 0.15 mM) with 10 μl of inhibitors/vehicle, 130 μl phosphate buffer and 20 μl of enzyme in 96 well plate. As a result of the catalytic reaction, p-nitrophenol was produced as a reaction product which was subsequently measured using spectra max M3 multi-mode microplate reader (Molecular Devices) at 37 °C, at 405 nm for 15 min. […] The experiments were performed in triplicate.
as §1, §2

[3] = PTP1B, secondary plots, read-out: KI (inhibitor binds with free enzyme)
[4] = from Dixon plots, read-out: PTP1B Ki (inhibition constant)
[5] = pNPP substrate, triplicate, read-out: PTP1B IC50

α-glucosidase (EC 3.2.1.20. from Baker's Yeast), sequence (P53341 whole entry): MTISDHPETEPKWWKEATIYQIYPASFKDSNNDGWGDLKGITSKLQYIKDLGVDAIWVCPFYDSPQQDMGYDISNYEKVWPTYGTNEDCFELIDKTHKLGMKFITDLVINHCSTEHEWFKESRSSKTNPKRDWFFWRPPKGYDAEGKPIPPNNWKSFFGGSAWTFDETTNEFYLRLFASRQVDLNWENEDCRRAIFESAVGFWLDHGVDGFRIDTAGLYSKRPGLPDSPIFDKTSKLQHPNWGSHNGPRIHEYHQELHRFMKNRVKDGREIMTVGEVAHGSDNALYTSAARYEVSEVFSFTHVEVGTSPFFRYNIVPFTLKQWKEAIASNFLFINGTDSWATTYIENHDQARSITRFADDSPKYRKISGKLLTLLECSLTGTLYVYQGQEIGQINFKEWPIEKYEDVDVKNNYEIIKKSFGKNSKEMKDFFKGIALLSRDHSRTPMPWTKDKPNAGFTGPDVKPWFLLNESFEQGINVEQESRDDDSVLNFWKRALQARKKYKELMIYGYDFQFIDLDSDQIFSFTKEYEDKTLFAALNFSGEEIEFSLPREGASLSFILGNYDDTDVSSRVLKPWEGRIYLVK

| SMILES | PTP1B type of inhibition [1] | KIS (inhibitor binds with enzyme-substrate complex) ([1]; PTP1B, secondary plots) [µM] | α-Glucosidase type of inhibition [2] | Ki [1, 3] [µM] | Ki [1, 4] [µM] | IC50 [1, 5] [µM] | other results |
| --- | --- | --- | --- | --- | --- | --- | --- |
| CC(C)=CCC/C(C)=C/Cc1c(O)cc2c(c1O)C(=O)C[C@@H](c1ccc(O)cc1)O2 [Compound 1, mimulone] | Mixed TypeⅠ; also recorded: mixed type Ι; also recorded: Mixed Type I | 2.2 ± 0.1 | Noncompetitive |  |  |  | IC50 [1]: 1.9 ± 0.1 µM; Ki ([1]; KI (inhibitor binds with free enzyme), PTP1B, secondary plots, text without unit): 0.4 µM; Ki ([1]; PTP1B Ki (inhibition constant), from Dixon plots): 0.8 ± 0.1 µM; Vmax ([1]; PTP1B, [I] 0.78 µM): 0.012; Kik/Kiv ([1]; PTP1B, [I] 0.78 µM): 2.660; Vmax ([1]; PTP1B, [I] 1.56 µM): 0.009; Kik/Kiv ([1]; PTP1B, [I] 1.56 µM): 3.335; Vmax ([1]; PTP1B, [I] 3.13 µM): 0.007; Kik/Kiv ([1]; PTP1B, [I] 3.13 µM): 3.694; KIS (inhibitor binds with enzyme-substrate complex) ([1]; PTP1B, secondary plots, text without unit): 2.2; reversibility of PTP1B inhibition ([1]; initial velocity versus enzyme concentration at different inhibitor concentrations): reversible inhibitor; Vmax ([2]; [I] 12.5 µM): 0.117; Kik/Kiv ([2]; [I] 12.5 µM): 12.42; Vmax ([2]; [I] 25 µM): 0.082; Kik/Kiv ([2]; [I] 25 µM): 19.34; Vmax ([2]; [I] 50 µM): 0.054; Kik/Kiv ([2]; [I] 50 µM): 27.48 |
| COc1cc([C@@H]2CC(=O)c3c(cc(O)c(C/C=C(\C)CCC=C(C)C)c3O)O2)ccc1O [Compound 2, 3′-O-methyldiplacone] | Mixed TypeⅠ; also recorded: Mixed Type I | 3.7 ± 0.2 | Noncompetitive | 2.6 ± 0.1 | 3.2 ± 0.2 | 3.9 ± 0.3 |  |
| COc1ccc([C@@H]2CC(=O)c3c(cc(O)c(C/C=C(\C)CCC=C(C)C)c3O)O2)cc1O [Compound 3, 4′-O-methyldiplacone] | Mixed TypeⅠ; also recorded: Mixed Type I | 10.1 ± 0.4 | Noncompetitive | 5.7 ± 0.3 | 8.1 ± 0.6 | 7.8 ± 0.6 |  |
| COc1c(O)cc(C2CC(=O)c3c(cc(O)c(C/C=C(\C)CCC=C(C)C)c3O)O2)cc1O (stereo not drawn) [Compound 4, 6-geranyl-3′,5,5′,7-tetrahydroxy-4′-methoxyflavanone] | Mixed TypeⅠ; also recorded: Mixed Type I | 11.2 ± 0.4 | Noncompetitive | 5.5 ± 0.3 | 6.1 ± 0.5 | 5.9 ± 0.4 |  |
| COc1cc([C@@H]2CC(=O)c3c(cc(O)c(C/C=C(\C)CCC=C(C)C)c3O)O2)cc(OC)c1O [Compound 5, 3′-O-Methyl-5′-O-methyldiplacone] | Mixed TypeⅠ; also recorded: Mixed Type I | 4.6 ± 0.2 | Noncompetitive | 2.8 ± 0.2 | 3.5 ± 0.3 | 3.8 ± 0.3 |  |
| COc1cc([C@H]2Oc3cc(O)c(C/C=C(\C)CCC=C(C)C)c(O)c3C(=O)[C@@H]2O)ccc1O [Compound 6, 3′-O-methyldiplacol] | Mixed TypeⅠ; also recorded: mixed type Ι; also recorded: Mixed Type I | 5.2 ± 0.2 | Noncompetitive | 3.5 ± 0.2 | 3.8 ± 0.3 | 4.9 ± 0.5 |  |
| COc1ccc([C@H]2Oc3cc(O)c(C/C=C(\C)CCC=C(C)C)c(O)c3C(=O)[C@@H]2O)cc1O [Compound 7, 4′-O-methyldiplacol] | Mixed TypeⅠ; also recorded: Mixed Type I | 13.7 ± 0.6 | Noncompetitive | 6.9 ± 0.4 | 7.9 ± 0.4 | 8.2 ± 0.6 |  |
| COc1c(O)cc([C@H]2Oc3cc(O)c(C/C=C(\C)CCC=C(C)C)c(O)c3C(=O)[C@@H]2O)cc1O [Compound 8] | Mixed TypeⅠ; also recorded: Mixed Type I | 10.3 ± 0.5 | Noncompetitive | 5.9 ± 0.3 | 6.2 ± 0.4 | 6.6 ± 0.5 |  |
| [Na+].[Na+].[Na+].[O]=[V]([O-])([O-])[O-] [NaVO4, reference compound] |  |  |  |  |  |  | IC50 ([2]; pNPG substrate, triplicate): > 200 µM |
